These results are taken from patent publication US11512089B2, “Substituted [1,2,4]triazolo[3,4-a]phthalazines as modulators of GABAA receptor activity” (SHANGHAI SIMR BIOTECHNOLOGY CO., LTD, priority 2018, dated 2022).

SMILES strings stand for the structures. ≈ marks a conversion by molar mass, not a printed value.

Data set [1] in a line: Kinetic solubility in 50 mM phosphate buffer pH 7.4. In kind it is physicochemical. Particulars: aqueous buffer, kinetic from dmso stock, 50 mM phosphate buffer pH 7.4, 2% DMSO, room temperature. How it is done:
(§1) 50 mM phosphate buffer pH=7.4: 0.39 g of NaH2PO4.2H2O, and 1.4025 g of Na2HPO4 were weighted and placed in an erlenmeyer flask, 240 mL of water was added. The solid was dissolved and mixed thoroughly, the pH value was adjusted to 7.4 with 10M NaOH solution, and the resulting solution was transferred to a 250 mL volumetric flask, followed by adding water to the mark.
(§2) Waters e2695 HPLC high performance liquid chromatography, Mettler XSE105 analytical balance.
(§3) Firstly, a 10 mM stock solution with DMSO as the solvent was prepared, and was diluted with a diluent (ACN: PB buffer 50:50) into 1 μM-200 μM as standard solution.
Kinetic solubility. 30 μL of the stock solution was placed in a 2 mL centrifuge tube, 1470 μL of 50 mM phosphate buffer (pH 7.4) (containing DMSO at a final concentration of 2%) was added. The mixture was shaken at room temperature (1000 rpm/min) for 24 hours, and then filtered. The filtrate was tested by high performance liquid chromatography (UV).

A further data set deals with T1, α5-GABAA receptor (Homo sapiens, UniProt P18507+P31644).
T1 construct: expressed in transfected cells; host or cells: HEK-293 (monoclonal, stably transfected)
The experiment in a line: Whole cell patch clamp, inverse agonism efficacy on GABA-induced current in HEK-293 cells expressing α5-GABAA receptor. In kind it is cell-based. Particulars: HEK293; compound 100 nM, GABA 0.05 μM; ratio to reference compound Example 7 in CN106854207A in the same batch. How it is done: The inventors used electrophysiological methods to determine the inverse agonist efficacy of the substances to be tested. The detailed procedures are as follows:
(1) Different subunits of GABAA receptors were expressed in human embryonic kidney cells 293 (HEK293). The cells were cultured in a culture medium and used as a cell model for screening potential analgesics. The α, β and γ subunits are necessary to form complete functional GABAA receptors. In this example, the inventors have established the following cell model: (a) α5 subunit (protein sequence is GenBank accession number: NM_000810.3), (33 subunit (protein sequence is GenBank accession number: NM_000814.5) and γ2 subunit (protein sequence is GenBank accession number: NM_000816.3) were expressed in HEK-293 cell line at the same time, followed by screening the monoclonal cell line. This cell line contained α5-GABAA receptor and had complete GABAA receptor function.
(2) The monoclonal stably transfected HEK-293 cells expressing α5-GABAA receptor were cultured in 10 cm culture dishes. The cells were passaged after reaching 80-90% confluence. During passaging, the culture medium was removed and discarded, 3 mL of DPBS (phosphate buffered saline, Gibco™) was added to the dishes, the dishes were shaken slightly, and DPBS was removed and discarded. 1 mL of trypsin (TrypLE Express, Gibco™) was added and the cells were digested at 37° C. for 1-2 minutes. Then 3 mL of complete medium (DMEM+10% FBS (Gibco™)) was added and the cells at the bottom of the culture dishes were dispersed. The cell suspension were transferred to a 15 mL centrifugal tube (Corning™) and then centrifuged at 200 g for 3 minutes. The supernatant was discarded, 4 mL of complete medium was added, and the cells were resuspended by gently blowing. The cell suspension was diluted by 1:5 or 1:10 for subculturing. The cell suspension was diluted by 1:12 for electrophysiology experiment, and added to a 24 well plate (Corning™) with a glass slide pre-treated with poly-D-lysine placed thereon; the experiment was initiated after the cells were adhered to the slide. The cells for electrophysiology experiment were maintained in culture for no more than 48 hours before use.
(3) Compound concentration: for screening, all compounds were diluted to a final concentration of 100 nM and the concentration of GABA was 0.05 μM. The compounds were at the concentration of 0.3 nM, 3 nM, 10 nM, 30 nM, 100 nM and 300 nM in dose-inverse agonism efficacy (%) experiment. The whole cell patch clamp technique was used in electrophysiology experiments, which can refer to the literature (I. Lecker, Y. Yin, D. S. Wang and B. A. Orser, (2013) Potentiation of GABAA receptor activity by volatile anaesthetics is reduced by α5-GABAA receptor-preferring inverse agonists, British Journal of Anaesthesia 110 (S1): i73-i81). The extracellular solution (ECS) contained: 150 mM NaCl, 5 mM KCl, 2.5 mM CaCl2, 1 mM MgCl2, 10 mM HEPES and 10 mM glucose (pH 7.4); Patch electrodes were filled with an intracellular solution containing: 140 mM CsCl, 11 mM EGTA, 10 mM HEPES, 2 mM CaCl2, 1 mM MgCl2, 4 mM MgATP, 2 mM TEA (pH 7.3). The currents were recorded by an EPC-10 amplifier and the PatchMaster software (HEKA). Patch electrodes with a resistance of 4-6 MΩ were pulled from borosilicate glass. The ALA-VC3-8PP™ system was used for extracellular administration. Separate cells that grew independently was selected for recording. During recording, the membrane voltage was clamped at −60 mV. During experiment, the cells were firstly perfused with ECS for 20 seconds. When the baseline reached to a stable state, the cells were then perfused with GABA solution. Then the current induced by GABA could be detected. After about 20 to 40 seconds, the current was stable. ECS was switched to compounds solution and the effects of the compounds were detected. At last, the perfusion solution was switched to ECS. […]
On the technique in general: The patch-clamp technique gives a direct electrical read-out from membranes.

The nature of data set [2]: Thermodynamic solubility in 50 mM phosphate buffer pH 7.4. In kind it is physicochemical. Particulars: aqueous buffer, thermodynamic from solid, 50 mM phosphate buffer pH 7.4, room temperature. How it is done:
as §1, §2, §3
Thermodynamic solubility. About 1 mg of the sample was weighted, 1.5 mL of 50 mM phosphate buffer (pH 7.4) was added thereto, and the mixture was shaken at room temperature for 24 hours to ensure that the solution reached a state of saturation. The solution was then filtered, and the filtrate was tested with high-performance liquid chromatography (UV).

One may read the kinetic solubility as solubility judged after dilution from a stock solution rather than from solid. Broadly, the Emax is the size of the effect at its maximum, as opposed to the concentration needed. The thermodynamic solubility is solubility found after equilibrating the solid with the medium.

T1 sequence (P31644 32-462): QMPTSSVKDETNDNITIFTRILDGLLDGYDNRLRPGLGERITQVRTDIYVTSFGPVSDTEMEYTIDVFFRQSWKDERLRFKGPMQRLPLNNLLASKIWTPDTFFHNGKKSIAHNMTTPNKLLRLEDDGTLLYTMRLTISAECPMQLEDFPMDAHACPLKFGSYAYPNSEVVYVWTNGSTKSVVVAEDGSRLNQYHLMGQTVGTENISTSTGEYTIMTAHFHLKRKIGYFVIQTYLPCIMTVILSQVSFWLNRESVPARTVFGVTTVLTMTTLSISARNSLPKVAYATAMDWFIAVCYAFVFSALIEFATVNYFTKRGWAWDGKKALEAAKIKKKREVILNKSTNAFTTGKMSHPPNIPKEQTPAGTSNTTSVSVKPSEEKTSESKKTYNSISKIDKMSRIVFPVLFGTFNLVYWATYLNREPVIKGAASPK
T1 sequence (P28472 26-473 partner): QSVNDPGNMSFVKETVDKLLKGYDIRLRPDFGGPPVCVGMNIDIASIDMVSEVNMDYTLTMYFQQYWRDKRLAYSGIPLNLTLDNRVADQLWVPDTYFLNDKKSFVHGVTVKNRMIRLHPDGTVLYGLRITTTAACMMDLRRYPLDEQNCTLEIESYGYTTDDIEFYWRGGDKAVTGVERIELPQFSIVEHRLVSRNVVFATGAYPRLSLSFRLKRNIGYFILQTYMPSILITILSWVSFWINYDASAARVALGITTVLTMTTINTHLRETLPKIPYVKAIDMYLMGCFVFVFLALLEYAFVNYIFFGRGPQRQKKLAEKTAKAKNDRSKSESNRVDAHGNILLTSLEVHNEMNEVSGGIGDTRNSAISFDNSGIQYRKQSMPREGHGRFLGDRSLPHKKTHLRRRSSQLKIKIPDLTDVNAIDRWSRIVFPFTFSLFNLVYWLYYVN
T1 sequence (P18507 40-467 isoform P18507-1 limits assumed): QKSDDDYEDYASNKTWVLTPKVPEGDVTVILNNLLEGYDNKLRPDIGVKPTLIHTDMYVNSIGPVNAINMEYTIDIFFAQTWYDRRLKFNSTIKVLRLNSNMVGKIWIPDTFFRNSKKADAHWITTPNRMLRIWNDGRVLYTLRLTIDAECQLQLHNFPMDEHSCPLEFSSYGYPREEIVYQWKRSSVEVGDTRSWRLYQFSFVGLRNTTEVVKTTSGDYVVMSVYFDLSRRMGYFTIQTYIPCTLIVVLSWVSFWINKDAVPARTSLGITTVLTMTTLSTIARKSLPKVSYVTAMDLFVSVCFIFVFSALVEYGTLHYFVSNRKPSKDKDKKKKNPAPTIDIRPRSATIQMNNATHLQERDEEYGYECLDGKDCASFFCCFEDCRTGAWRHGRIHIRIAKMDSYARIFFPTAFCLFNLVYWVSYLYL

`COCc1cc(-c2nnc3c4ccccc4c(OCc4ccc(C(=O)N[C@@H](C)COC)cn4)nn23)no1` [Compound 05, (S)—N-(2-methoxy-1-methyl-ethyl)-6-[3-(5-methoxymethyl-isoxazol-3-yl)-[1,2,4]triazolo[3,4-a]phthalazin-6-yloxymethyl]-nicotinamide]: the kinetic solubility at 24 h in data set [1] amounted to 25.6 µg/mL (≈ 50.7 µM). Further, the maximal response (Emax) at 0.1 µM on α5-GABAA receptor is 90%.
The compound `COCc1cc(-c2nnc3c4ccccc4c(OCc4ccc(C(=O)NC[C@@H]5CCCO5)cn4)nn23)no1` [Compound 06, (S)-6-[3-(5-methoxymethyl-isoxazol-3-yl)-[1,2,4]triazolo[3,4-a]phthalazin-6-yloxymethyl]-N-(tetrahydro-furan-2-ylmethyl)-nicotinamide] registered a kinetic solubility at 24 h in data set [1] of 13.6 µg/mL (≈ 26.4 µM). Further, the Emax at 0.1 µM at α5-GABAA receptor worked out at 74.9%.
The matching figures for `COCCNC(=O)c1ccc(COc2nn3c(-c4cc(COC)on4)nnc3c3ccccc23)nc1` [Compound 07, N-(2-methoxy-ethyl)-6-[3-(5-methoxymethyl-isoxazol-3-yl)-[1,2,4]triazolo[3,4-a]phthalazin-6-yloxymethyl]-nicotinamide]: 23.2 µg/mL (≈ 47.4 µM) and 108%.
`COCc1cc(-c2nnc3c4ccccc4c(OCc4ccc(C(=O)NC(C)COC)cn4)nn23)no1` (stereo not shown) [Compound 10, N-(2-methoxy-1-methyl-ethyl)-6-[3-(5-methoxymethyl-isoxazol-3-yl)-[1,2,4]triazolo[3,4-a]phthalazin-6-yloxymethyl]-nicotinamide] displayed a solubility (kinetic) at 24 h in data set [1] of 18.9 µg/mL (≈ 37.6 µM). Also, at α5-GABAA receptor, the Emax at 0.1 µM came to 103%.
For the compound `COCc1cc(-c2nnc3c4ccccc4c(OCc4ccc(C(=O)NCC(F)(F)F)cn4)nn23)no1` [Compound 15, N-(2,2,2-trifluoroethyl)-6-((3-(5-methoxymethylisoxazol-3-yl)-[1,2,4]triazolo[3,4-a]phthalazin-6-oxy)methylene)nicotinamide], in data set [1], the kinetic solubility at 24 h worked out at 0.77 µg/mL (≈ 1.5 µM). In data set [2], this compound registered a thermodynamic solubility at 24 h of 0.84 µg/mL (≈ 1.64 µM).
Turning to `COCc1cc(-c2nnc3c4ccccc4c(OCc4ccc(C(=O)NCC5COC5)cn4)nn23)no1` [Compound 18], the kinetic solubility at 24 h in data set [1] was 10.8 µg/mL (≈ 21.4 µM). Besides, the maximal response (Emax) at 0.1 µM at α5-GABAA receptor was 115%.
As to `COCc1cc(-c2nnc3c4ccccc4c(OCc4ccc(C(=O)NCC5(C)COC5)cn4)nn23)no1` [Compound 20, N-((3-methyl(oxetanyl)-methyl)-6-{3-[5(methoxymethyl)isoxazol-3-yl]-[1,2,4]triazole[3,4-a]phthalazin-6-oxy)methylene}nicotinamide], in data set [1], the solubility (kinetic) at 24 h stood at 10.1 µg/mL (≈ 19.7 µM). Also, the maximal effect (Emax) at 0.1 µM on α5-GABAA receptor was found to be 118%.
In data set [1], `COCc1cc(-c2nnc3c4ccccc4c(OCc4ccc(C(=O)NC5CCC5)cn4)nn23)no1` [Compound 23] showed a solubility (kinetic) at 24 h of 9.11 µg/mL (≈ 18.8 µM). Also, at α5-GABAA receptor, the maximal response (Emax) at 0.1 µM stood at 73.7%.
In turn, `COCc1cc(-c2nnc3c4ccccc4c(OCc4ccc(C(=O)NCC(F)F)cn4)nn23)no1` [Compound 24] had a solubility (kinetic) at 24 h in data set [1] of 1.39 µg/mL (≈ 2.81 µM). In data set [2], this compound returned a thermodynamic solubility at 24 h of 0.74 µg/mL (≈ 1.49 µM).
Turning to `COCc1cc(-c2nnc3c4ccccc4c(OCc4ccc(C(=O)NCCC#N)cn4)nn23)no1` [Compound 28, N-(2-cyano-ethyl)-6-[3-(5-methoxymethyl-isoxazol-3-yl)-[1,2,4]triazolo[3,4-a]phthalazin-6-yloxymethyl]-nicotinamide], the kinetic solubility at 24 h in data set [1] amounted to 3.68 µg/mL (≈ 7.6 µM). The Emax at 0.1 µM on α5-GABAA receptor was 133%.
Consider `COCc1cc(-c2nnc3c4ccccc4c(OCc4ccc(C(=O)NC(COC)COC)cn4)nn23)no1` [Compound 30], for which, in data set [1], the solubility (kinetic) at 24 h was determined as 6.85 µg/mL (≈ 12.8 µM). For the same compound, the maximum response (Emax) at 0.1 µM on α5-GABAA receptor is 85.2%.
`COCc1cc(-c2nnc3c4ccccc4c(OCc4ccc(C(=O)NC56CC(C5)C6)cn4)nn23)no1` [Compound 31] showed a solubility (kinetic) at 24 h in data set [1] of 4.19 µg/mL (≈ 8.42 µM). Further, the Emax at 0.1 µM on α5-GABAA receptor stood at 95.1%.
Consider `COCc1cc(-c2nnc3c4ccccc4c(OCc4ccc(C(=O)NC5CN(C(C)=O)C5)cn4)nn23)no1` [Compound 32], for which the kinetic solubility at 24 h in data set [1] was determined as 29.7 µg/mL (≈ 56.3 µM). Moreover, the maximum response (Emax) at 0.1 µM on α5-GABAA receptor was determined as 89.1%.
On to `COCc1cc(-c2nnc3c4ccccc4c(OCc4ccc(C(=O)N5CC6(COC6)C5)cn4)nn23)no1` [Compound 39], for which, in data set [1], the kinetic solubility at 24 h was found to be 48.5 µg/mL (≈ 94.3 µM). In addition, the Emax at 0.1 µM on α5-GABAA receptor was 90.2%.
In the case of `COCc1cc(-c2nnc3c4ccccc4c(OCc4ccc(C(=O)N(C)CC5CC5)cn4)nn23)no1` [Compound 40], the kinetic solubility at 24 h in data set [1] was 31.9 µg/mL (≈ 63.9 µM). Besides, at α5-GABAA receptor, the maximal response (Emax) at 0.1 µM came out at 78.3%.
With `COCc1cc(-c2nnc3c4ccccc4c(OCc4ccc(C(=O)N5C[C@@H]6C[C@H]5CO6)cn4)nn23)no1` [Compound 43], in data set [1], the solubility (kinetic) at 24 h came to 100 µg/mL (≈ 195 µM). Moreover, on α5-GABAA receptor, the maximal response (Emax) at 0.1 µM was 86.9%.
Compound `COCc1cc(-c2nnc3c4ccccc4c(OCc4ccc(C(=O)N5CCC(O)CC5)cn4)nn23)no1` [Compound 45] gave a kinetic solubility at 24 h in data set [1] of 6.93 µg/mL (≈ 13.4 µM). In addition, the maximal effect (Emax) at 0.1 µM on α5-GABAA receptor amounted to 88.4%.
For `COCc1cc(-c2nnc3c4ccccc4c(OCc4ccc(C(=O)N5CCOCC5C)cn4)nn23)no1` (stereo not shown) [Compound 47, (6-(((3-(5-(methoxymethyl)isoxazol-3-yl)-[1,2,4]triazolo[3,4-a]phthalazin-6-yl)oxy)methyl)pyridin-3-yl)(3-methylmorpholino)methanone], the kinetic solubility at 24 h in data set [1] was 97.8 µg/mL (≈ 190 µM). The maximal response (Emax) at 0.1 µM at α5-GABAA receptor was 72.5%.
For the compound `COCc1cc(-c2nnc3c4ccccc4c(OCc4ccc(C(=O)N5CCCC5)cn4)nn23)no1` [Compound 48], the solubility (kinetic) at 24 h in data set [1] stood at 31.7 µg/mL (≈ 65.3 µM). At α5-GABAA receptor, the maximum response (Emax) at 0.1 µM was found to be 78.7%.
Turning to `COCc1cc(-c2nnc3c4ccccc4c(OCc4ccc(C(=O)N5CCCCC5)cn4)nn23)no1` [Compound 49, (6-(((3-(5-(methoxymethyl)isoxazol-3-yl)-[1,2,4]triazolo[3,4-a]phthalazin-6-yl)oxy)methyl)pyridin-3-yl)(piperidin-1-yl)methanone], the Emax at 0.1 µM at α5-GABAA receptor was determined as 75.2%.
The compound `COCc1cc(-c2nnc3c4ccccc4c(OCc4ccc(C(=O)N5CCOC(C)C5)cn4)nn23)no1` (stereo not shown) [Compound 54] yielded a solubility (kinetic) at 24 h in data set [1] of 97.9 µg/mL (≈ 190 µM). Also, at α5-GABAA receptor, the Emax at 0.1 µM came out at 77.5%.
For `COCc1cc(-c2nnc3c4ccccc4c(OCc4ccc(C(=O)N5CCC6(CC5)COC6)cn4)nn23)no1` [Compound 56, {6-[3-(5-methoxymethyl-isoxazol-3-yl)-[1,2,4]triazolo[3,4-a]phthalazin-6-yloxymethyl]-pyridin-3-yl}-(2-oxa-7-aza-spiro[3.5]non-7-yl)-methanone], in that order: 12.5 µg/mL (≈ 23.1 µM) and 111%.
